Activity calls are given as the source filed them. How the calls were made is not given here.
Tested on: CCRIS mutagenicity, Ames/micronucleus/aberration tests
Test: CCRIS mutagenicity studies
[1] = Test System: AMES SALMONELLA TYPHIMURIUM, Strain/Indicator: TA98, Metabolic Activation: NONE, Method: PREINCUBATION
[2] = Test System: AMES SALMONELLA TYPHIMURIUM, Strain/Indicator: TA100, Metabolic Activation: NONE, Method: PREINCUBATION
[3] = Test System: AMES SALMONELLA TYPHIMURIUM, Strain/Indicator: TA1535, Metabolic Activation: NONE, Method: PREINCUBATION
[4] = Test System: AMES SALMONELLA TYPHIMURIUM, Strain/Indicator: TA97, Metabolic Activation: NONE, Method: STANDARD PLATE
[5] = Test System: AMES SALMONELLA TYPHIMURIUM, Strain/Indicator: TA97, Metabolic Activation: RAT, LIVER, S-9, AROCLOR 1254, Method: STANDARD PLATE
[6] = Test System: AMES SALMONELLA TYPHIMURIUM, Strain/Indicator: TA98, Metabolic Activation: NONE, Method: STANDARD PLATE
[7] = Test System: AMES SALMONELLA TYPHIMURIUM, Strain/Indicator: TA98, Metabolic Activation: RAT, LIVER, S-9, AROCLOR 1254, Method: STANDARD PLATE
[8] = Test System: AMES SALMONELLA TYPHIMURIUM, Strain/Indicator: TA100, Metabolic Activation: NONE, Method: STANDARD PLATE
[9] = Test System: AMES SALMONELLA TYPHIMURIUM, Strain/Indicator: TA100, Metabolic Activation: RAT, LIVER, S-9, AROCLOR 1254, Method: STANDARD PLATE

SMILES: CCCCCCCCCCCC(=O)N(CCO)CCO
- mutagenic call (End Point: IN VITRO CHROMOSOMAL ABERRATIONS, Test System: CHO-LB CELLS, Metabolic Activation: NONE): inactive; negative
- mutagenic call (End Point: IN VITRO CHROMOSOMAL ABERRATIONS, Test System: CHO-LB CELLS, Metabolic Activation: RAT, LIVER, S-9, AROCLOR 1254): inactive; negative
- mutagenic call (Test System: AMES SALMONELLA TYPHIMURIUM, Strain/Indicator: TA97, Metabolic Activation: HAMSTER, LIVER, S-9, AROCLOR 1254 (10%), Method: PREINCUBATION): inactive; negative
- mutagenic call (Test System: AMES SALMONELLA TYPHIMURIUM, Strain/Indicator: TA97, Metabolic Activation: HAMSTER, LIVER, S-9, AROCLOR 1254 (30%), Method: PREINCUBATION): inactive; negative
- mutagenic call (Test System: AMES SALMONELLA TYPHIMURIUM, Strain/Indicator: TA97, Metabolic Activation: NONE, Method: PREINCUBATION): inactive; negative
- mutagenic call (Test System: AMES SALMONELLA TYPHIMURIUM, Strain/Indicator: TA97, Metabolic Activation: RAT, LIVER, S-9, AROCLOR 1254 (10%), Method: PREINCUBATION): inactive; negative
- mutagenic call (Test System: AMES SALMONELLA TYPHIMURIUM, Strain/Indicator: TA97, Metabolic Activation: RAT, LIVER, S-9, AROCLOR 1254 (30%), Method: PREINCUBATION): inactive; negative
- mutagenic call (Test System: AMES SALMONELLA TYPHIMURIUM, Strain/Indicator: TA98, Metabolic Activation: HAMSTER, LIVER, S-9, AROCLOR 1254 (10%), Method: PREINCUBATION): inactive; negative
- mutagenic call (Test System: AMES SALMONELLA TYPHIMURIUM, Strain/Indicator: TA98, Metabolic Activation: HAMSTER, LIVER, S-9, AROCLOR 1254 (30%), Method: PREINCUBATION): inactive; negative
- mutagenic call [1]: inactive; negative
- mutagenic call (Test System: AMES SALMONELLA TYPHIMURIUM, Strain/Indicator: TA98, Metabolic Activation: RAT, LIVER, S-9, AROCLOR 1254 (10%), Method: PREINCUBATION): inactive; negative
- mutagenic call (Test System: AMES SALMONELLA TYPHIMURIUM, Strain/Indicator: TA98, Metabolic Activation: RAT, LIVER, S-9, AROCLOR 1254 (30%), Method: PREINCUBATION): inactive; negative
- mutagenic call (Test System: AMES SALMONELLA TYPHIMURIUM, Strain/Indicator: TA100, Metabolic Activation: HAMSTER, LIVER, S-9, AROCLOR 1254 (10%), Method: PREINCUBATION): inactive; negative
- mutagenic call (Test System: AMES SALMONELLA TYPHIMURIUM, Strain/Indicator: TA100, Metabolic Activation: HAMSTER, LIVER, S-9, AROCLOR 1254 (30%), Method: PREINCUBATION): inactive; negative
- mutagenic call [2]: inactive; negative
- mutagenic call (Test System: AMES SALMONELLA TYPHIMURIUM, Strain/Indicator: TA100, Metabolic Activation: RAT, LIVER, S-9, AROCLOR 1254 (10%), Method: PREINCUBATION): inactive; negative
- mutagenic call (Test System: AMES SALMONELLA TYPHIMURIUM, Strain/Indicator: TA100, Metabolic Activation: RAT, LIVER, S-9, AROCLOR 1254 (30%), Method: PREINCUBATION): inactive; negative
- mutagenic call (Test System: AMES SALMONELLA TYPHIMURIUM, Strain/Indicator: TA1535, Metabolic Activation: HAMSTER, LIVER, S-9, AROCLOR 1254 (10%), Method: PREINCUBATION): inactive; negative
- mutagenic call (Test System: AMES SALMONELLA TYPHIMURIUM, Strain/Indicator: TA1535, Metabolic Activation: HAMSTER, LIVER, S-9, AROCLOR 1254 (30%), Method: PREINCUBATION): inactive; negative
- mutagenic call [3]: inactive; negative
- mutagenic call (Test System: AMES SALMONELLA TYPHIMURIUM, Strain/Indicator: TA1535, Metabolic Activation: RAT, LIVER, S-9, AROCLOR 1254 (10%), Method: PREINCUBATION): inactive; negative
- mutagenic call (Test System: AMES SALMONELLA TYPHIMURIUM, Strain/Indicator: TA1535, Metabolic Activation: RAT, LIVER, S-9, AROCLOR 1254 (30%), Method: PREINCUBATION): inactive; negative

SMILES: Oc1ccc(Cl)cc1
- mutagenic call [4]: inactive; negative
- mutagenic call [5]: active; positive
- mutagenic call [6]: inactive; negative
- mutagenic call [7]: active; positive
- mutagenic call (Test System: AMES SALMONELLA TYPHIMURIUM, Strain/Indicator: TA98, Metabolic Activation: S-9, Method: STANDARD PLATE): active; positive
- mutagenic call [8]: inactive; negative
- mutagenic call [9]: active; positive
- mutagenic call (Test System: AMES SALMONELLA TYPHIMURIUM, Strain/Indicator: TA100, Metabolic Activation: S-9, Method: STANDARD PLATE): inactive; negative
- mutagenic call (Test System: AMES SALMONELLA TYPHIMURIUM, Strain/Indicator: TA104, Metabolic Activation: NONE, Method: STANDARD PLATE): inactive; negative
- mutagenic call (Test System: AMES SALMONELLA TYPHIMURIUM, Strain/Indicator: TA104, Metabolic Activation: RAT, LIVER, S-9, AROCLOR 1254, Method: STANDARD PLATE): inactive; negative

SMILES: CN1C(=O)C(O)CC1c1cccnc1 (stereo unspecified)
- mutagenic call [1]: inactive; negative
- mutagenic call (Test System: AMES SALMONELLA TYPHIMURIUM, Strain/Indicator: TA98, Metabolic Activation: RAT, LIVER, S-9, AROCLOR 1254 (5%), Method: PREINCUBATION): inactive; negative
- mutagenic call [2]: inactive; negative
- mutagenic call (Test System: AMES SALMONELLA TYPHIMURIUM, Strain/Indicator: TA100, Metabolic Activation: RAT, LIVER, S-9, AROCLOR 1254 (5%), Method: PREINCUBATION): inactive; negative
- mutagenic call [3]: inactive; negative
- mutagenic call (Test System: AMES SALMONELLA TYPHIMURIUM, Strain/Indicator: TA1535, Metabolic Activation: RAT, LIVER, S-9, AROCLOR 1254 (5%), Method: PREINCUBATION): inactive; negative
- mutagenic call (Test System: AMES SALMONELLA TYPHIMURIUM, Strain/Indicator: TA1537, Metabolic Activation: NONE, Method: PREINCUBATION): inactive; negative
- mutagenic call (Test System: AMES SALMONELLA TYPHIMURIUM, Strain/Indicator: TA1537, Metabolic Activation: RAT, LIVER, S-9, AROCLOR 1254 (5%), Method: PREINCUBATION): inactive; negative
- mutagenic call (Test System: AMES SALMONELLA TYPHIMURIUM, Strain/Indicator: TA1538, Metabolic Activation: NONE, Method: PREINCUBATION): inactive; negative
- mutagenic call (Test System: AMES SALMONELLA TYPHIMURIUM, Strain/Indicator: TA1538, Metabolic Activation: RAT, LIVER, S-9, AROCLOR 1254 (5%), Method: PREINCUBATION): inactive; negative

SMILES: CC(C)(C)CN(N=O)C(N)=O
- mutagenic call (Test System: E. COLI, Strain/Indicator: HS30R UVRA, Metabolic Activation: NONE, Method: PREINCUBATION): active; positive
- mutagenic call (Test System: E. COLI, Strain/Indicator: O16 POLA, Metabolic Activation: NONE, Method: PREINCUBATION): active; positive

SMILES: CCOc1cc2c(c3ccc4ccccc4c13)CCC2=O
- mutagenic call [9]: inactive; negative

SMILES: O=S(=O)(O)Oc1cccc2c1cc1ccc3cccc4ccc2c1c34
- mutagenic call [1]: inactive; negative
- mutagenic call (Test System: AMES SALMONELLA TYPHIMURIUM, Strain/Indicator: TA98, Metabolic Activation: RAT, LUNG, S-9, Method: PREINCUBATION): inactive; negative

SMILES: O=C(O)C1Cc2c([nH]c3ccccc23)C(CO)N1 (stereo unspecified)
- mutagenic call [4]: inactive; negative
- mutagenic call [5]: inactive; negative
- mutagenic call [6]: inactive; negative
- mutagenic call [7]: inactive; negative
- mutagenic call [8]: inactive; negative
- mutagenic call [9]: inactive; negative

SMILES: C1CCC2OCCOCCOCCOC3CCCCC3OCCOCCOCCOC2C1 (stereo unspecified)
- mutagenic call [6]: inactive; negative
- mutagenic call [7]: inactive; negative
- mutagenic call [8]: inactive; negative
- mutagenic call [9]: inactive; negative
- mutagenic call (Test System: AMES SALMONELLA TYPHIMURIUM, Strain/Indicator: TA1530, Metabolic Activation: NONE, Method: STANDARD PLATE): inactive; negative
- mutagenic call (Test System: AMES SALMONELLA TYPHIMURIUM, Strain/Indicator: TA1530, Metabolic Activation: RAT, LIVER, S-9, AROCLOR 1254, Method: STANDARD PLATE): inactive; negative
- mutagenic call (Test System: AMES SALMONELLA TYPHIMURIUM, Strain/Indicator: TA1537, Metabolic Activation: NONE, Method: STANDARD PLATE): inactive; negative
- mutagenic call (Test System: AMES SALMONELLA TYPHIMURIUM, Strain/Indicator: TA1537, Metabolic Activation: RAT, LIVER, S-9, AROCLOR 1254, Method: STANDARD PLATE): inactive; negative

— PubChem BioAssay AID1259407 (Chemical Carcinogenesis Research Information System (CCRIS), 2018)
